Molecules are shown by their SMILES.

One series deals with Dipeptidyl peptidase 4 (Homo sapiens, UniProt P27487). In words: Inhibition of human DPP4 using gly-pro-para-nitroanilide as substrate.
A short description of series [1]: Degradation half life of the compound at 30 mM at pH 7.2. It counts as physicochemical. Conditions: buffer.
Series [2] is described as follows: Degradation half life of the compound at 50 mM at pH 7.2. It counts as physicochemical. Conditions: buffer.
Series [3] in a line: Degradation half life of the compound at 10 mM at pH 7.2. The format is physicochemical. Conditions: buffer.

Sequence of Dipeptidyl peptidase 4 (P27487 whole entry): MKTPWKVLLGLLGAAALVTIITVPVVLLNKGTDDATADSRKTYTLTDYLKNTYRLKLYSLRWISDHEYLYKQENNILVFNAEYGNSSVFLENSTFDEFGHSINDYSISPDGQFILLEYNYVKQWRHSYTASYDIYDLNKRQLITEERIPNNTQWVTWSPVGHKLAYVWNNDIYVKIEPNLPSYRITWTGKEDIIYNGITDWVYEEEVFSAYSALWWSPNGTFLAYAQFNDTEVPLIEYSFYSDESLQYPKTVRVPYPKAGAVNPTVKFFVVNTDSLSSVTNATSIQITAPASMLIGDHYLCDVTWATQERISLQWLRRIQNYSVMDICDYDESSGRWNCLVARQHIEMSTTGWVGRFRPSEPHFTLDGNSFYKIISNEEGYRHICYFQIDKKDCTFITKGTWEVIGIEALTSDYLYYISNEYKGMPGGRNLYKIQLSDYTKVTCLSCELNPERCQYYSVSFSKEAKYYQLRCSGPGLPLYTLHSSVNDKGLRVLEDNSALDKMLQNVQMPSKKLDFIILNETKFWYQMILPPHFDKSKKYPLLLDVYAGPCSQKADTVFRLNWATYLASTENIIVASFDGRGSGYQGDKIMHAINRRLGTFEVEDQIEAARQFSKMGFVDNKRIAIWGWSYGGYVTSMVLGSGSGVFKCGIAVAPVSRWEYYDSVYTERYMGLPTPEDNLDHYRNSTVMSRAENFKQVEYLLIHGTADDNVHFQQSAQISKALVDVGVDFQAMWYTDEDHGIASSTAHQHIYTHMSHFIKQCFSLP

`N#C[C@@H]1C[C@@H]2C[C@@H]2N1C(=O)[C@@H](N)C1CCN(C(=O)Cc2ccccc2)CC1`: the affinity at Dipeptidyl peptidase 4 corresponds to a Ki of 18 nM.
As for `CC(C)(C)CC(=O)N1CCC([C@H](N)C(=O)N2[C@H](C#N)C[C@@H]3C[C@@H]32)CC1`, the half-life at 30000 µM in series [1] was 38.4 h. Also, the half-life at 50000 µM in series [2] was 38.4 h. Also, the half-life at 10000 µM in series [3] is 48 h.
For `CCC1([C@H](N)C(=O)N2[C@H](C#N)C[C@@H]3C[C@@H]32)CCN(C(=O)CC(C)(C)C)CC1`, in series [1], the half-life at 30000 µM was 245 h. Moreover, the half-life at 50000 µM in series [2] is 192 h. The same compound gave a half-life at 10000 µM in series [3] of 473 h.
On Dipeptidyl peptidase 4, `N#C[C@@H]1C[C@@H]2C[C@@H]2N1C(=O)[C@@H](N)C1CCN(S(=O)(=O)c2cccc3ccccc23)CC1` yielded a Ki of 13 nM. In other words, the double-digit nanomolar range.
